Laboratory results from patent US20120295907A1, “INSECTICIDAL COMPOUNDS” (SYNGENTA CROP PROTECTION, LLC, priority 2009, published 2012).

How the values were obtained:
Type in all cases: in vivo
[1] = system: Spodoptera littoralis; assay: Spodoptera littoralis (Egyptian Cotton Leafworm) cotton leaf disc spray test; conditions: foliar, 72 h, 200 ppm spray on cotton leaf discs, L1 larvae, mortality, feeding behavior, growth regulation 3 DAT
[2] = system: Plutella xylostella; assay: Plutella xylostella (Diamond Back Moth) artificial diet MTP test; conditions: 144 h, 200 ppm (concentration in well 18 ppm), L2 larvae, 6 days, larval mortality, growth regulation
[3] = system: Thrips tabaci; assay: Thrips tabaci (Onion Thrips) sunflower leaf disc spray test; conditions: foliar, 168 h, 200 ppm spray on sunflower leaf discs, population of mixed ages, 7 days, mortality
[4] = system: Tetranychus urticae; assay: Tetranychus urticae (Two-Spotted Spider Mite) bean leaf disc spray test; conditions: foliar, 192 h, 200 ppm spray on bean leaf discs, mite populations of mixed ages, 8 days, egg, larval and adult mortality, read-out: control of Tetranychus urticae
[5] = system: Diabrotica balteata; assay: Diabrotica balteata (Corn Root Worm) artificial diet MTP test; conditions: 120 h, 200 ppm (concentration in well 18 ppm), L2 larvae, 5 days, larval mortality, growth regulation
[6] = system: Heliothis virescens; assay: Heliothis virescens (Tobacco Budworm) egg test on artificial diet; conditions: 96 h, 200 ppm (concentration in well 18 ppm), eggs 0-24 h old on artificial diet, 4 days, egg mortality, larval mortality, growth regulation

Measured: pest or weed control at 200 ppm

CCc1cc(C(F)(C(F)(F)F)C(F)(F)C(F)(F)F)cc(C)c1NC(=O)c1cccc(NC(=O)c2cccc([N+](=O)[O-])c2C)c1OC (stereo not drawn) [A2, N-[2-ethyl-4-(1,2,2,3,3,3-hexafluoro-1-trifluoromethylpropyl)-6-methylphenyl]-3-(2-methyl-3-nitrobenzoylamino)-2-methoxybenzamide]
≥ 80%: [1] | [2] | [3] | [4]

CCc1cc(C(F)(C(F)(F)F)C(F)(F)C(F)(F)F)cc(C)c1NC(=O)c1cccc(NC(=O)c2ccc(C#N)cc2C)c1OC (stereo not drawn) [A5, N-[2-ethyl-4-(1,2,2,3,3,3-hexafluoro-1-trifluoromethylpropyl)-6-methyl-phenyl]-3-(4-cyano-2-methylbenzoylamino)-2-methoxybenzamide]
not listed: [6]
≥ 80%: all other assays above

CCc1cc(C(F)(C(F)(F)F)C(F)(F)C(F)(F)F)cc(C)c1NC(=O)c1cccc(NC(=O)c2cccnc2Cl)c1OC (stereo not drawn) [A6]
≥ 80%: all assays above

CCc1cc(C(F)(C(F)(F)F)C(F)(F)C(F)(F)F)cc(C)c1NC(=O)c1cccc(NC(=O)c2cccnc2F)c1OC (stereo not drawn) [A7]
≥ 80%: all assays above

CCc1cc(C(F)(C(F)(F)F)C(F)(F)C(F)(F)F)cc(C)c1NC(=O)c1cccc(NC(=O)c2cc(Cl)ccc2Cl)c1OC (stereo not drawn) [A16]
≥ 80%: all assays above

COc1c(NC(=O)c2ccc(C#N)cc2C)cccc1C(=O)Nc1c(Cl)cc(C(F)(C(F)(F)F)C(F)(F)C(F)(F)F)cc1Br (stereo not drawn) [B1, N-[2-bromo-6-chloro-4-(1,2,2,3,3,3-hexafluoro-1-trifluoromethylpropyl)-phenyl]-3-(4-cyano-2-methylbenzoylamino)-2-methoxybenzamide]
not listed: [5]
≥ 80%: all other assays above

COc1c(NC(=O)c2ccc(F)cc2C)cccc1C(=O)Nc1c(Cl)cc(C(F)(C(F)(F)F)C(F)(F)C(F)(F)F)cc1Br (stereo not drawn) [B9]
≥ 80%: all assays above

COc1c(NC(=O)c2snnc2C)cccc1C(=O)Nc1c(Cl)cc(C(F)(C(F)(F)F)C(F)(F)C(F)(F)F)cc1Br (stereo not drawn) [B21]
≥ 80%: all assays above

COc1c(NC(=O)c2ccc(Cl)cc2[N+](=O)[O-])cccc1C(=O)Nc1c(Cl)cc(C(F)(C(F)(F)F)C(F)(F)C(F)(F)F)cc1Br (stereo not drawn) [B64]
≥ 80%: all assays above

COc1c(NC(=O)c2ccc(Br)c(C)c2)cccc1C(=O)Nc1c(Cl)cc(C(F)(C(F)(F)F)C(F)(F)C(F)(F)F)cc1Br (stereo not drawn) [B65]
not listed: [5]
≥ 80%: all other assays above

COc1c(NC(=O)c2ccc(Cl)s2)cccc1C(=O)Nc1c(Cl)cc(C(F)(C(F)(F)F)C(F)(F)C(F)(F)F)cc1Br (stereo not drawn) [B67]
≥ 80%: all assays above

COc1c(NC(=O)c2cc(F)c(F)cc2Cl)cccc1C(=O)Nc1c(Cl)cc(C(F)(C(F)(F)F)C(F)(F)C(F)(F)F)cc1Br (stereo not drawn) [B73]
≥ 80%: all assays above

COc1c(NC(=O)c2cc(C)ccc2[N+](=O)[O-])cccc1C(=O)Nc1c(Cl)cc(C(F)(C(F)(F)F)C(F)(F)C(F)(F)F)cc1Br (stereo not drawn) [B74]
≥ 80%: all assays above

COc1c(NC(=O)c2cccnc2C(F)(F)F)cccc1C(=O)Nc1c(Cl)cc(C(F)(C(F)(F)F)C(F)(F)C(F)(F)F)cc1Br (stereo not drawn) [B81]
≥ 80%: all assays above

COc1c(NC(=O)c2cc(Cl)nc(Cl)c2)cccc1C(=O)Nc1c(Cl)cc(C(F)(C(F)(F)F)C(F)(F)C(F)(F)F)cc1Br (stereo not drawn) [B97]
≥ 80%: all assays above

COc1c(NC(=O)c2c(Cl)cccc2[N+](=O)[O-])cccc1C(=O)Nc1c(Cl)cc(C(F)(C(F)(F)F)C(F)(F)C(F)(F)F)cc1Br (stereo not drawn) [B101]
≥ 80%: all assays above

COc1c(NC(=O)c2ccc(Cl)c(OC)c2Cl)cccc1C(=O)Nc1c(Cl)cc(C(F)(C(F)(F)F)C(F)(F)C(F)(F)F)cc1Br (stereo not drawn) [B109]
≥ 80%: all assays above

COc1c(NC(=O)c2cccc(CC#N)c2)cccc1C(=O)Nc1c(Cl)cc(C(F)(C(F)(F)F)C(F)(F)C(F)(F)F)cc1Br (stereo not drawn) [B110]
≥ 80%: all assays above

COc1c(NC(=O)c2cc(C(F)(F)F)nn2C)cccc1C(=O)Nc1c(Cl)cc(C(F)(C(F)(F)F)C(F)(F)C(F)(F)F)cc1Br (stereo not drawn) [B113]
≥ 80%: all assays above

COc1c(NC(=O)c2cc(F)ccc2Cl)cccc1C(=O)Nc1c(Cl)cc(C(F)(C(F)(F)F)C(F)(F)C(F)(F)F)cc1Br (stereo not drawn) [B154]
not listed: [6]
≥ 80%: all other assays above

COc1c(NC(=O)c2c(F)cccc2F)cccc1C(=O)Nc1c(Cl)cc(C(F)(C(F)(F)F)C(F)(F)C(F)(F)F)cc1Br (stereo not drawn) [B172]
not listed: [5]
≥ 80%: all other assays above

COc1c(NC(=O)c2c(F)cc(C#N)cc2F)cccc1C(=O)Nc1c(Cl)cc(C(F)(C(F)(F)F)C(F)(F)C(F)(F)F)cc1Br (stereo not drawn) [B176]
not listed: [5]
≥ 80%: all other assays above

COc1c(NC(=O)c2ccc([N+](=O)[O-])c(C)c2)cccc1C(=O)Nc1c(Cl)cc(C(F)(C(F)(F)F)C(F)(F)C(F)(F)F)cc1Br (stereo not drawn) [B190]
not listed: [5]
≥ 80%: all other assays above

COc1c(NC(=O)c2ccc([N+](=O)[O-])cc2F)cccc1C(=O)Nc1c(Cl)cc(C(F)(C(F)(F)F)C(F)(F)C(F)(F)F)cc1Br (stereo not drawn) [B191]
not listed: [5]
≥ 80%: all other assays above

COc1c(NC(=O)c2ccc(C(F)(F)F)cc2)cccc1C(=O)Nc1c(Cl)cc(C(F)(C(F)(F)F)C(F)(F)C(F)(F)F)cc1Cl (stereo not drawn) [C15]
not listed: [5]
≥ 80%: all other assays above

COc1c(NC(=O)c2ccc(C#N)cc2C)cccc1C(=O)Nc1c(C)cc(C(F)(C(F)(F)F)C(F)(F)F)cc1C [K4]
not listed: [3]
≥ 80%: all other assays above
